Values joined by “and” are separate entries in the source; they are usually repeats but may differ in a detail not shown here. Identical values can stand only once. Counter-ions that a name gives are not always drawn.

For orientation: melting point means the temperature, or range, at which the solid turns liquid. With `COc1ccccc1N1CCN(CCCC(=O)c2ccc(F)cc2)CC1` [4-[4-(o-Methoxyphenyl)-1-piperazinyl]-p-fluorobutyrophenone], the melting point came out at 68 °C. As for `C1CC1` [cyclopropane], the melting point is -127 °C.

Compound `COc1ccc(CC(=O)O)cc1OC` [(3,4-Dimethoxyphenyl)acetic acid] came in with a melting point of 98 °C. With `CCOS(=O)(=O)OCC` [Diethyl sulfate] the figure was -24 °C. With `COc1ccc(CCN)cc1OC` [2-(3,4-dimethoxyphenyl)ethylamine] the figure was 11 °C; with `CCN(CC)c1ccccc1` [n,n-diethylaniline], -38 °C; with `Oc1ccc2cccc(O)c2c1` [1,7-dihydroxynaphthalene], 182 °C. Turning to `CCOC(=O)c1cc(O)c(O)c(O)c1` [ethyl 3,4,5-trihydroxybenzoate], the melting point was 150 °C. The compound `CCOC(=O)c1ccc(N)cc1` [ethyl 4-aminobenzoate] showed a melting point of 89 °C. For `O=C(CCl)Nc1ccccc1[N+](=O)[O-]` [2-chloro-2'-nitroacetanilide], the melting point was 88 °C. Take `COc1ccccc1OC` [o-dimethoxybenzene]: the melting point is 15 °C. In turn, `O=C1OS(=O)(=O)c2ccccc21` [2-sulfobenzoic anhydride] gave a melting point of 120 °C.

With `COc1ccc(N)c(OC)c1` [2,4-dimethoxyaniline], the melting point worked out at 35 °C. For the compound `Clc1ncc[nH]1` [2-chloroimidazole], the melting point is 166 °C. As for `NC1CCCCC1` [cyclohexylamine], the melting point is -17 °C and -17.7 °C.

For the compound `CCC1(c2ccccc2)C(O)=NC(=O)N=C1O` [phenobarbital], the melting point is 176 °C. As for `CCCC(c1ccccc1)c1ccccc1` [1,1-diphenylbutane], the melting point was -25 °C. As to `CCOC(=O)[C@@H]1CC[C@H](C(C)=O)[C@@H]1NC(=O)OC(C)(C)C`, the melting point was 110 °C.

On to `Cc1cc(O)ccc1Cl` [4-chloro-3-methylphenol], for which the melting point was found to be 67 °C.

Turning to `O=C(O)/C=C/c1cccc2c(Br)ccc([N+](=O)[O-])c12` [(2E)-3-(5-bromo-8-nitronaphthalen-1-yl)prop-2-enoic acid], the melting point stood at 142 °C. Turning to `CC(=O)c1ccccc1[N+](=O)[O-]` [o-nitroacetophenone], the melting point was found to be 30 °C. With `O=C(O)c1ccc(O)cc1` [4-hydroxybenzoic acid] the figure was 214 °C and 215 °C. `O=C4\C=C3/[C@@H]([C@H]2CC[C@]1([C@@H](CC[C@]1(C#C)O)[C@@H]2CC3)CC)CC4` [(-)-levonorgestrel] registered a melting point of 236 °C.

For `CI` [Iodomethane], the melting point is -64 °C. As to `ClCc1cccc(CCl)c1` [a,a'-dichloro-m-xylene], the melting point came out at 36 °C. With `COc1cc(C(C)=O)ccc1O` [4'-hydroxy-3'-methoxyacetophenone], the melting point was found to be 114 °C. `CCOC(=O)CC(O)(CC(=O)OCC)C(=O)OCC` [triethyl citrate] returned a melting point of -55 °C. The compound `CCCCCC=O` [hexanal] displayed a melting point of -56 °C. Consider `CC(C)c1ccc(O)cc1` [4-isopropylphenol], for which the melting point was 60 °C and 61 °C. For `CC(C)CBr` [1-bromo-2-methylpropane], the melting point was -117 °C and -118 °C. Regarding `COc1ccc(C#N)cc1` [4-methoxybenzonitrile], the melting point stood at 59 °C.

`CCCOC1CCC2C3CCC4=CC(=O)CCC4(C)C3CCC12C` (stereo unspecified) [17-propoxyandrost-4-en-3-one] gave a melting point of 118 °C.

In turn, `Nc1ccccc1Oc1ccccc1` [2-phenoxyaniline] gave a melting point of 47 °C. `CC(C)=NO` [acetone oxime] returned a melting point of 62 °C.

For the compound `Clc1cc(Cl)c(Cl)cc1Cl` [1,2,4,5-Tetrachlorobenzene], the melting point was 139 °C.

Compound `O=[N+]([O-])c1c(Cl)c(Cl)cc(Cl)c1Cl` [2,3,5,6-Tetrachloronitrobenzene] showed a melting point of 99.5 °C. `N[C@H](CO)Cc1ccccc1` [L-phenylalaninol] yielded a melting point of 92 °C. For the compound `OC(c1ccccc1)(c1ccccc1)C1CCNCC1` [azacyclonol], the melting point amounted to 160 °C. `Cc1cccc(Nc2ccccc2C(=O)O)c1C` [Mefenamic acid] displayed a melting point of 230 °C. For `Brc1n[nH]c(Br)c1Br` [3,4,5-tribromo-1h-pyrazole] the value was 186 °C; for `O=C(O)c1ccccc1` [benzoic acid], 122 °C. For `FC(F)(Cl)Cl` [Dichloro(difluoro)methane] the value was -158 °C; for `N#Cc1cccc(N)c1` [3-aminobenzonitrile], 52 °C; for `O=C(O)CCc1c(F)c(F)nc(F)c1F` [2,3,5,6-tetrafluoropyridine-4-propionic acid], 152 °C. The compound `COc1cccc(C=O)c1OC` [2,3-dimethoxybenzaldehyde] yielded a melting point of 52 °C. With `OCC(CO)(CO)CO` [Pentaerythritol], the melting point came to 260 °C. The compound `COc1ccc2c(c1)C(=O)CC2` [6-methoxy-1-indanone] yielded a melting point of 103 °C. As to `CCOC(=O)Cc1c(C)n(C(=O)c2ccc(Cl)cc2)c2ccc(OC)cc12` [indomethacin ethyl ester], the melting point was 96 °C.

The compound `CCCCCCCCCCCCCCC(=O)O` [pentadecanoic acid] registered a melting point of 53 °C. In the case of `COC(=O)C1=C(C)NC(C)=C(C(=O)OC)C1c1ccccc1[N+](=O)[O-]` [Nifedipine], the melting point amounted to 173 °C. With `CCOC(=O)Cc1ccc(N)cc1` [ethyl 4-aminophenylacetate] the figure was 47 °C; with `C=CC(=O)O` [Acrylic Acid], 13.5 °C; with `CCOC(=O)C(C#N)=C(SC)N(C)C` [ethyl 2-cyano-3-(dimethylamino)-3-(methylthio)acrylate], 92 °C. `CCC(C)CC(=O)O` (stereo unspecified) [3-methylvaleric acid] yielded a melting point of -42 °C. For `Cl[C@H]1[C@H](Cl)[C@@H](Cl)[C@H](Cl)[C@H](Cl)[C@H]1Cl` [(1R,2R,3R,4R,5S,6S)-1,2,3,4,5,6-Hexachlorocyclohexane] the value was 159 °C; for `COC(=O)c1ccc(O)cc1` [Methyl 4-hydroxybenzoate], 131 °C; for `CCCOC(C)=O` [propyl_acetate], -95 °C. `NC1CCCCC1` [Cyclohexanamine] displayed a melting point of -18 °C. Take `O=C1C=CC(=O)C2CC3=C(CC4=C(C3)CC3C(=O)C=CC(=O)C3C4)CC12` (stereo unspecified): the melting point stood at 338 °C. For the compound `C[SiH](C)O[SiH](C)C` [1,1,3,3-tetramethyldisiloxane], the melting point was -78 °C.

As to `O=[N+]([O-])c1ccc(OCCN2CCOCC2)cc1` [4-[2-(4-nitrophenoxy)ethyl]morpholine], the melting point came out at 80 °C. On to `Cn1c(=O)c2c(ncn2C)n(C)c1=O` [1,3,7-Trimethyl-3,7-dihydro-1H-purine-2,6-dione], for which the melting point came to 237 °C. In turn, `NCCCCN` [Putrescine] came in with a melting point of 27.5 °C.

`O=[N+]([O-])c1ccc(F)cc1F` [2,4-difluoro-1-nitrobenzene]: the melting point is 10 °C. Regarding `CCCCCCCCBr` [1-bromooctane], the melting point was -55 °C. `Cc1ccccc1N1CCN(CCc2nnc3n2CCCC3)CC1` [dapiprazole] returned a melting point of 158 °C. In turn, `Cc1ccc(CS(=O)(=O)Cl)cc1` [alpha-p-xylenesulfonyl chloride] showed a melting point of 77 °C. `c1ccc(CC2CCNCC2)cc1` [4-benzylpiperidine] yielded a melting point of 7 °C. For `COC1(OC)CCC2(C)C(CCC3C4CCCC4(C)CCC32)C1` (stereo unspecified) [3,3-dimethoxyandrostane] the value was 80 °C. In turn, `CC1C=CC=CCCC=CC=CC=CC=CC(OC2O[C@H](C)[C@@H](O)[C@H](N)[C@@H]2O)CC(O)C(C(=O)O)C(O)CC(=O)CC(O)C(O)CCC(O)CC(O)CC(O)CC(=O)OC(C)C(C)C1O` (stereo partly specified) [Nystatin] registered a melting point of 160 °C.

With `O=C(O)c1ccc(Cl)c(Cl)c1` [3,4-dichlorobenzoic_acid], the melting point amounted to 208 °C.

Regarding `Brc1nc2ccccc2[nH]1` [2-bromobenzimidazole], the melting point was determined as 198 °C. The compound `N#Cc1cccc(C=O)c1` [3-cyanobenzaldehyde] displayed a melting point of 77 °C.

In turn, `CC1(C)OC(=O)C(=Cc2ccc(-c3ccccc3)o2)C(=O)O1` gave a melting point of 143 °C. In turn, `O=C(O)c1ccc2ccccc2c1` [2-naphthoic acid] returned a melting point of 184 °C. Consider `CSCC[C@H](NC(C)=O)C(=O)O` [N-Acetyl-L-methionine], for which the melting point was determined as 106 °C. With `Clc2cccc(Cl)c2N=C1/NCCN1` [clonidine] the figure was 130 °C; with `N#Cc1ccccc1` [Benzonitrile], -13 °C. Compound `COc1ccc(B(O)O)c(Cl)c1` [2-chloro-4-methoxybenzeneboronic acid] registered a melting point of 202 °C. With `Cc1c(C(=O)O)cnn1-c1ccccc1` [OSM-S-24], the melting point came to 168 °C. Consider `C/C=C\CCCCC` [cis-2-octene], for which the melting point was -100 °C.

With `Cc1ccc(C)c(CC(=O)O)c1` [2,5-dimethylphenylacetic acid], the melting point was 128 °C.

Turning to `CCOC(=O)C1=C(C)C(C(=O)OCC)N=C1C` (stereo unspecified) [2,4-Dimethyl-3,5-dicarbethoxypyrrole], the melting point stood at 137 °C.

`Oc1ccccc1O` [Pyrocatechol] came in with a melting point of 105 °C. `CCCCCC(O)CC` (stereo unspecified) [3-octanol] gave a melting point of -45 °C.

In turn, `Cc1cc(C)c(C)cc1C` [1,2,4,5-tetramethylbenzene] showed a melting point of 80 °C. Consider `O=Cc1ccc([N+](=O)[O-])cc1[N+](=O)[O-]` [2,4-dinitrobenzaldehyde], for which the melting point stood at 67 °C. Compound `OCCCCO` [Butane-1,4-diol] showed a melting point of 18 °C.

As to `O=C(O)CCSc1ccc2ccccc2c1` [3-(2-naphthylthio)propionic acid], the melting point came to 105 °C. On to `Cc1ccc(S(=O)(=O)NC2CCCCC2)cc1` [N-cyclohexyl-p-toluenesulfonamide], for which the melting point worked out at 88 °C. With `Oc1ccccc1I` [o-iodophenol], the melting point worked out at 42 °C.

The values above are taken from the Bradley open melting point set (2014).
